Source: patent publication US8404681B2, “Xanthones, thioxanthones and acridinones as DNA-PK inhibitors” (Luitpold Pharmaceuticals, Inc., priority 2003, dated 2013)

Columns and labels:
[1] = biological target: T1, DNA-PK (Homo sapiens, UniProt P78527); assay: Standard DNA-PK assay (phosphorylation of p53 peptide substrate); assay type: biochemical; details: purified human DNA-PK, 50 μM ATP, room temperature, read-out: IC50 (inhibition of DNA-PK enzyme activity)
T1 construct: HeLa S3 cells (ATCC CCL-2.2; Batch F12594) were raised in MEM-Joklik media; endogenous in cells; host or cells: HeLa S3 cells (ATCC CCL-2.2); Endogenous enzyme purified in house: S100-2 fraction, then Q-Sepharose FF, then SP-Sepharose FF, giving fraction IV
Procedure: Reactions were carried out at room temperature. Reactions were started by addition of ATP and stopped by application to phosphocellulose paper. Reaction products spotted onto phosphocellulose paper were washed five times with a total volume of at least 250 mL 10% acetic acid or 150 mM phosphoric acid. The paper was air dried and radioactivity was determined in a Beckman LS6000IC scintillation counter.

[2] = tested on: MDA-MB231 (human breast carcinoma) cells; assay: DNA double-strand break repair assay (pulse field gel electrophoresis after irradiation); assay type: cell-based; details: 25 Gy, at concentrations which enhanced radiation induced cell killing
Procedure: To further determine the cellular effect of DNA-PK inhibitors, an assay to measure chromosomal discontinuities was employed. Ionizing radiation induces chromosomal DNA double-strand breaks. Following high dose radiation, chromosomes can be extracted from cells and fractionated by pulse field electrophoresis to distinguish chromosomal fragments from intact larger chromosomes. Using this technique, the activity of DNA-PK inhibitors was measured.
MDA-MB231 (human breast carcinoma) cells were seeded onto T25 flasks with RPMI1640+10% FBS, 2 mM L-glutamine, penicillin G 100 U/ml-streptomycin sulfate 10 μg/ml, 1 mM Na pyruvate. When confluent, media was removed and replaced with media containing DNA-PK inhibitor or vehicle. Cells were incubated at 37° C. for 1 hr in a humidified chamber with 5% CO2. Media then was removed and flasks were filled with ice-cold D-PBS and either: (a) processed immediately; (b) irradiated (25 Gy in a ^137Cs Mark I irradiator at a flux of 335 rad/min) and processed immediately; (c) irradiated and incubated for 2 hr in complete RPMI1640+vehicle at 37° C. (in humidified 5% CO2 atmosphere to allow for DNA repair), or (d) irradiated and incubated for 2 hr in complete RPMI1640+DNA-PK inhibitor compound. […] Chromosomal DNA was visualized with SYBR-Gold (Molecular probes #S-11494) and the fluorescent image quantified on the STORM 860 (Molecular Dynamics).

[3] = tested on: human colorectal carcinoma cell line, HCT-116; assay: Radiation enhancement cellular proliferation assay (3H thymidine incorporation); assay type: cell-based; details: HCT-116 cells, γ-radiation at doses up to 800 rads
Procedure: To measure the ability of present DNA-PK inhibitor compounds to enhance the toxic effect of radiation treatment, the human colorectal carcinoma cell line, HCT-116, was incubated with inhibitor compounds at concentrations up to 50 μM and treated with γ-radiation at doses up to 800 rads. Cells were maintained in RPMI 1640 (Gibco) containing 10% […], 1 mM sodium pyruvate, 2 mM L-glutamine, 100 U/mL penicillin, and 100 μg/mL streptomycin at 37° C. with 5% CO2 in a humidified incubator. Cultured cells were trypsinized, counted, and seeded into 96 well plates at a concentration of 1000 cells/well. Cells were incubated with varying concentrations of the inhibitor compounds from 1.8 μM to 50 μM for 10 hr or 5 days, then the media-containing compounds were removed and replaced With fresh media without drug. After five days, ^3H thymidine (1 μCi/well) was added to each well and incubated for an additional 20 hr. The plates were frozen at −70° C. for at least 2 hr and thawed at 37° C. to lyse the cells. DNA was harvested onto glass fiber filters and ^3H thymidine incorporation determined with a Packard Matrix 96 direct beta counter. Compound dependent potentiation of radiation induced cell killing was determined by comparing the effect of radiation alone and radiation plus inhibitor compound.

O=c1c2ccccc2n(Cc2ccccc2)c2cc(N3CCOCC3)cc(O)c12 [Example 28, 10-Benzyl-1-hydroxy-3-morpholin-4-yl-10H-acridin-9-one]
IC50 [1]: 20 nM | DNA double-strand break repair [2]: inhibited DNA double-strand break repair | concentration that enhanced radiation induced cell killing 2-fold [3]: 17.5 µM
